This is an account of results in paper PMC9602792, “Preclinical evaluation of the epithelial sodium channel inhibitor AZD5634 and implications on human translation” (American Journal of Physiology - Lung Cellular and …, 2022).

For assay [1], the system named is people with CF. More on the design: method as in PMID 35227647. As to conditions: single-dose inhalation, NCT02950805; cited from earlier work.
The target in assay [2] is T1, ENaC (Homo sapiens, UniProt P37088+P51168+P51170).
T1 construct: host or cells: primary normal human bronchial epithelial cells, ALI culture
T1 sequence (P37088 1-669): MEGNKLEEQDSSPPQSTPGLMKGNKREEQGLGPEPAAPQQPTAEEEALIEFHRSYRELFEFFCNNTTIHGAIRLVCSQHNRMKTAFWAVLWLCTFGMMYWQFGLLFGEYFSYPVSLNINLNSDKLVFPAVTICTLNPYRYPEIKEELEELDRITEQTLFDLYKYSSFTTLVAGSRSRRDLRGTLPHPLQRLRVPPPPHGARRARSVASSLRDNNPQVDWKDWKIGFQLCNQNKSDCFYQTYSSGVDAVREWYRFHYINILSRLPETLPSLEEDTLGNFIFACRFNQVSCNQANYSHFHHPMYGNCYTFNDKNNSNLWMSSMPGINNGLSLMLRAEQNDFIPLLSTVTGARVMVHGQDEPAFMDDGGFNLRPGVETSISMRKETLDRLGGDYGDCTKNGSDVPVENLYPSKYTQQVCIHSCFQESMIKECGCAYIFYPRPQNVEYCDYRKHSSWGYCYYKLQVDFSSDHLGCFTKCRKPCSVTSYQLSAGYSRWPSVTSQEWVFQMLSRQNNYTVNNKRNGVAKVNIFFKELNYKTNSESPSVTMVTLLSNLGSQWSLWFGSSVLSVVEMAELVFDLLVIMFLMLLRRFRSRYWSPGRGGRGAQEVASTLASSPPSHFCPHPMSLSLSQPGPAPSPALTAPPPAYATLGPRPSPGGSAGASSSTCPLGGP
T1 sequence (P51168 1-640): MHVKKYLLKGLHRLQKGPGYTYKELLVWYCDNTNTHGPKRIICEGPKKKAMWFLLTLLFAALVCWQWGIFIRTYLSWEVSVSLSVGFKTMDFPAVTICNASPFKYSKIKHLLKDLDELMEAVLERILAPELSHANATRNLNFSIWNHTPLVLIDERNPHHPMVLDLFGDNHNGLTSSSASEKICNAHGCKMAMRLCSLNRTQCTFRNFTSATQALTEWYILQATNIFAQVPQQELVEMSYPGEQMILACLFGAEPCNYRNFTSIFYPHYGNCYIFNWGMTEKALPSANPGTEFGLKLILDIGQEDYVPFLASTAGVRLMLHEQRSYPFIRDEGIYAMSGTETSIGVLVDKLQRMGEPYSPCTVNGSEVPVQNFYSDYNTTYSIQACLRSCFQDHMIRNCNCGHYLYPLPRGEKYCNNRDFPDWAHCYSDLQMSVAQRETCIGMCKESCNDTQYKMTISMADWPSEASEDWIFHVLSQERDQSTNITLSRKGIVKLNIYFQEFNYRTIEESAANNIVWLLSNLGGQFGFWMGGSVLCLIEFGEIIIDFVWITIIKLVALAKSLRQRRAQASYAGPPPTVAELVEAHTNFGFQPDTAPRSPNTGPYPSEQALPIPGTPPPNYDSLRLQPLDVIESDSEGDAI
T1 sequence (P51170 1-649): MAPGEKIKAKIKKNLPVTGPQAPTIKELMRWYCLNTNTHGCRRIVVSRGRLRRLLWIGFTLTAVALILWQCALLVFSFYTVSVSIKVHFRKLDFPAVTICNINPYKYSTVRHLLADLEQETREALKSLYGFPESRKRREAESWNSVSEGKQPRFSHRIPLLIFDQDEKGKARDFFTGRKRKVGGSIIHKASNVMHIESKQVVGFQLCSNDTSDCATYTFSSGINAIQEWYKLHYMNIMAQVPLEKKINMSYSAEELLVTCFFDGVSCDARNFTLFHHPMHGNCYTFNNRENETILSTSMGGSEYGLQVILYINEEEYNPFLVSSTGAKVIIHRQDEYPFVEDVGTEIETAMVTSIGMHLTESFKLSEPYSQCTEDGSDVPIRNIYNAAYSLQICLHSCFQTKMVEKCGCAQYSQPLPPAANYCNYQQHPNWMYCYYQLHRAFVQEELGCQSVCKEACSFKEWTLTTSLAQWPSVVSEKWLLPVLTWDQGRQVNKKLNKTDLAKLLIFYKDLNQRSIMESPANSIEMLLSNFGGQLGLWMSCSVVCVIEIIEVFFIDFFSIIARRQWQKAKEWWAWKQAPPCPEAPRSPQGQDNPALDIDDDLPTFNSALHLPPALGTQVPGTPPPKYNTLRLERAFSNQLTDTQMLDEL
Put plainly: Ussing chamber Isc in F508del-homozygous CF HBEC cultures. In kind it is cell-based. As to the method: Using previously described techniques ([2], [37]), epithelial cells were harvested from excised lung tissue derived from CF donors homozygous for F508del CFTR, expanded, and grown until confluency was attained. […] To stimulate fresh mucus secretion and formation of an even ASL layer, the cells were washed 48–72 h before experimentation with PneumaCult ALI media (80 µL), added apically, and then aspirated following 30–45 min incubation at 37°C. The washing process was repeated with a 15-min incubation period and the mucus layer was allowed to reestablish, after which the cells were treated with 1 µL of AZD5634 (1 µM, apical), alone and in combination with lumacaftor and ivacaftor (luma/iva; 3 µM/10 µM, basolateral). PBS (1% DMSO, apical) served as a vehicle control. […] Only passage 1 and 2 monolayers were used for these studies.
CFTR-dependent ion transport electrophysiology was measured in HBEC cultures by Isc using modified P2300 Ussing chambers (Physiologic Instruments, San Diego, CA) as previously described ([37], [38]). […] All chambers were maintained at 37°C and agonist stimulation was initiated within 15 min of placement in the chambers.
Descriptive statistics were calculated and means compared using unpaired or paired t tests, or ANOVA, with post hoc analyses conducted for multiple comparisons where appropriate. For analyses of functional anatomy of en bloc trachea, a mixed linear model was used that corrected for within-animal correlation. All tests were two-sided and were computed using GraphPad Prism (GraphPad Software, Inc., La Jolla, CA). P-values <0.05 were considered significant. Statistics are reported as means ± SE, unless indicated otherwise.

AZD5634: the “effect on MCC” value in assay [1] is “did not demonstrate augmented MCC”. In assay [2] (F508del-homozygous HBE ALI cultures, read-out: half maximal effective concentration (EC50), cumulative drug effect on Isc), the EC50 amounted to 45.2 nM. Moreover, the “incremental Isc change” value in assay [2] (at 100 nM) was −6.4 ± 1.6. Moreover, in assay [2] (at the maximum concentration (10,000 nM)), the “cumulative ΔIsc” value is reported as −25.3 ± 5.9. Further, in assay [2] (benzamil 10 μM after maximal concentration of test drug), the “further reduction in Isc upon acute addition of benzamil” value was “no further appreciable reductions in Isc”.
